The subject of this test is P388 leukemia ip, CD2F1 mice, survival T/C. Kind of test: NCI In Vivo Anticancer Drug Screen. Data for tumor model P388 Leukemia (intraperitoneal) in CD2F1 (CDF1) mice. As to conditions: endpoint: median survival time, higher = longer survival. The essentials:
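Mice carrying the transplanted tumor received test compound or vehicle. Survival was recorded in each group, and the value is the treated-group measurement divided by that of the vehicle-treated control group.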

Setting [1] is: dose: 50.0 mg/kg/injection, schedule: Q01DX005 (ip), vehicle: saline with Tween-80.
Setting [2] is: dose: 100.0 mg/kg/injection, schedule: Q01DX005 (ip), vehicle: saline with Tween-80.
Where [3] appears, read: dose: 50.0 mg/kg/injection, schedule: Q01DX005 (ip), vehicle: Klucel (hydroxypropylcellulose) (HPC).
[4] abbreviates: dose: 60.0 mg/kg/injection, schedule: Q01DX005 (ip), vehicle: saline with Tween-80.
Where [5] appears, read: dose: 120.0 mg/kg/injection, schedule: Q01DX005 (ip), vehicle: saline with Tween-80.
Where [6] appears, read: dose: 240.0 mg/kg/injection, schedule: Q01DX005 (ip), vehicle: saline with Tween-80.
Setting [7] is: dose: 50.0 mg/kg/injection, schedule: Q01DX009 (ip), vehicle: saline with Tween-80.
[8] abbreviates: dose: 100.0 mg/kg/injection, schedule: Q01DX009 (ip), vehicle: saline with Tween-80.
The mark [9] stands for this setting: dose: 200.0 mg/kg/injection, schedule: Q01DX009 (ip), vehicle: saline with Tween-80.
[10] abbreviates: dose: 25.0 mg/kg/injection, schedule: Q01DX009 (ip), vehicle: other.
The mark [11] stands for this setting: dose: 50.0 mg/kg/injection, schedule: Q01DX009 (ip), vehicle: other.
The mark [12] stands for this setting: dose: 100.0 mg/kg/injection, schedule: Q01DX009 (ip), vehicle: other.
[13] abbreviates: dose: 200.0 mg/kg/injection, schedule: Q01DX009 (ip), vehicle: other.
[14] abbreviates: dose: 100.0 mg/kg/injection, schedule: Q01DX001 (ip), vehicle: Klucel (hydroxypropylcellulose) (HPC).
Setting [15] is: dose: 200.0 mg/kg/injection, schedule: Q01DX001 (ip), vehicle: Klucel (hydroxypropylcellulose) (HPC).
[16] abbreviates: dose: 400.0 mg/kg/injection, schedule: Q01DX001 (ip), vehicle: Klucel (hydroxypropylcellulose) (HPC).
The mark [17] stands for this setting: dose: 12.5 mg/kg/injection, schedule: Q01DX009 (ip), vehicle: saline.
Setting [18] is: dose: 25.0 mg/kg/injection, schedule: Q01DX009 (ip), vehicle: saline.
The mark [19] stands for this setting: dose: 50.0 mg/kg/injection, schedule: Q01DX009 (ip), vehicle: saline.
[20] abbreviates: dose: 100.0 mg/kg/injection, schedule: Q01DX009 (ip), vehicle: saline.
The mark [21] stands for this setting: dose: 200.0 mg/kg/injection, schedule: Q01DX009 (ip), vehicle: saline.
Where [22] appears, read: dose: 60.0 mg/kg/injection, schedule: Q01DX005 (ip), vehicle: Klucel (hydroxypropylcellulose) (HPC).
The mark [23] stands for this setting: dose: 120.0 mg/kg/injection, schedule: Q01DX005 (ip), vehicle: Klucel (hydroxypropylcellulose) (HPC).
Setting [24] is: dose: 240.0 mg/kg/injection, schedule: Q01DX005 (ip), vehicle: Klucel (hydroxypropylcellulose) (HPC).
[25] abbreviates: dose: 100.0 mg/kg/injection, schedule: Q01DX005 (ip), vehicle: Klucel (hydroxypropylcellulose) (HPC).
Where [26] appears, read: dose: 200.0 mg/kg/injection, schedule: Q01DX005 (ip), vehicle: Klucel (hydroxypropylcellulose) (HPC).

Drawing on PubChem BioAssay AID330 (DTP/NCI, 2004), this text covers T/C for 26 compounds.

Each structure is given as a SMILES string. Several values for one entry are separate records, joined by “and”; a condition that tells them apart may be missing. Equal values may be shown once. Inconclusive results and toxic doses are left out.

`O=C1C2C3(CCl)C1C23CCl` (configuration not stated): the T/C is, setting by setting: (dose: 7.5 mg/kg/injection, schedule: Q01DX005 (ip), vehicle: Klucel (hydroxypropylcellulose) (HPC)) 108 % of control; (dose: 15.0 mg/kg/injection, schedule: Q01DX005 (ip), vehicle: Klucel (hydroxypropylcellulose) (HPC)) 104 % of control; (dose: 30.0 mg/kg/injection, schedule: Q01DX005 (ip), vehicle: Klucel (hydroxypropylcellulose) (HPC)) 108 % of control.

With `OCNC(=S)c1ccccc1`, the T/C is 105 % of control under setting [1] and 105 % of control under setting [2].

Regarding `O=S(=O)(F)c1nc(Cl)c2[nH]cnc2n1`, the T/C was 106 % of control (dose: 12.5 mg/kg/injection, schedule: Q01DX005 (ip), vehicle: Klucel (hydroxypropylcellulose) (HPC)); 114 % of control (dose: 25.0 mg/kg/injection, schedule: Q01DX005 (ip), vehicle: Klucel (hydroxypropylcellulose) (HPC)); 110 % of control and 114 % of control under setting [3].

Take `S=c1nc(Oc2ccc(-c3ccccc3)cc2)[nH]c(=S)[nH]1`: the T/C by setting is: under setting [4], 87 % of control; under setting [5], 92 % of control; under setting [6], 97 % of control.

As for `CN1C(=O)Nc2ccc(Cl)cc2C1(O)c1ccccc1` (configuration not stated), the T/C (dose: 25.0 mg/kg/injection, schedule: Q01DX009 (ip), vehicle: saline with Tween-80) is 90 % of control; the T/C under setting [7] was 86 % of control; the T/C under setting [8] was 92 % of control; the T/C under setting [9] is 91 % of control.

As to `S=c1[nH]c(N2CCOCC2)ncc1-c1ccccc1`, the T/C is, setting by setting: (dose: 100.0 mg/kg/injection, schedule: Q04DX002 (ip), vehicle: saline with Tween-80) 99 % of control; (dose: 200.0 mg/kg/injection, schedule: Q04DX002 (ip), vehicle: saline with Tween-80) 99 % of control.

As for `COc1ccc(C(=O)c2ncccc2C(=O)O)cc1OC`, the T/C by setting is: under setting [10], 93 % of control; under setting [11], 88 % of control; under setting [12], 100 % of control; under setting [13], 97 % of control; (dose: 400.0 mg/kg/injection, schedule: Q01DX009 (ip), vehicle: other) 94 % of control.

As for `O=[N+]([O-])c1ccc(Nc2ccccc2)c2nonc12`, the T/C reads like this: under setting [4], 110 % of control; under setting [5], 97 % of control; under setting [6], 94 % of control.

For the compound `Cc1ccc(C(=O)n2c(Br)c(/C=N/NC(N)=S)c3ccccc32)cc1`, the T/C under setting [14] was 100 % of control, the T/C under setting [15] was 100 % of control and the T/C under setting [16] was 95 % of control.

With `CN(C)CCCC1(O)c2ccccc2CCc2ccccc21`, the T/C by setting is: under setting [17], 103 % of control; under setting [18], 108 % of control; under setting [19], 101 % of control and 119 % of control; under setting [20], 94 % of control.

As for `O=C(O)CCc1nc(-c2ccccc2)nc2c1CCc1ccccc1-2`, the T/C (dose: 100.0 mg/kg/injection, schedule: Q04DX002 (ip), vehicle: Klucel (hydroxypropylcellulose) (HPC)) is 92 % of control; the T/C (dose: 200.0 mg/kg/injection, schedule: Q04DX002 (ip), vehicle: Klucel (hydroxypropylcellulose) (HPC)) was 97 % of control; the T/C (dose: 400.0 mg/kg/injection, schedule: Q04DX002 (ip), vehicle: Klucel (hydroxypropylcellulose) (HPC)) was 98 % of control.

Consider `CCCCCCC[CH2][Sn]([S][Sn]([CH2]CCCCCCC)([c]1ccccc1)[c]1ccccc1)([c]1ccccc1)[c]1ccccc1`, for which the T/C is 101 % of control (dose: 6.25 mg/kg/injection, schedule: Q01DX009 (ip), vehicle: saline); 98 % of control under setting [17]; 101 % of control under setting [18]; 86 % of control under setting [21].

Consider `CCCCOP(=O)(OCCCC)C(CC(=O)N(CCCC)CCCC)C(=O)N(CCCC)CCCC` (configuration not stated), for which the T/C is, setting by setting: under setting [1], 98 % of control; under setting [2], 102 % of control.

Consider `CC(/C=C/c1ccco1)=N\NC(=S)Nc1ccc(Cl)cc1`, for which the T/C is, setting by setting: under setting [14], 91 % of control; under setting [15], 100 % of control; under setting [16], 100 % of control.

With `CC(=O)OC12CCCCC1C1(CCCCC1)N=[N+]2[O-]` (configuration not stated), the T/C is 105 % of control (dose: 12.5 mg/kg/injection, schedule: Q01DX009 (ip), vehicle: other); 115 % of control under setting [10]; 100 % of control under setting [11]; 99 % of control under setting [12]; 112 % of control under setting [13].

Turning to `C=C1CCC2(C)C(O)CC3(C)C(CCC4C5(C)CCC(OC(C)=O)C(C)(C)C5CCC43C)C2C1C` (configuration not stated), the T/C is, setting by setting: (dose: 1.0 mg/kg/injection, schedule: Q01DX009 (ip), vehicle: alcohol) 107 % of control; (dose: 2.0 mg/kg/injection, schedule: Q01DX009 (ip), vehicle: alcohol) 105 % of control; (dose: 4.0 mg/kg/injection, schedule: Q01DX009 (ip), vehicle: alcohol) 115 % of control.

On to `Clc1cccc(/C=C/c2ccnnc2)c1`, for which the T/C under setting [19] was 101 % of control; the T/C under setting [20] is 86 % of control and 97 % of control; the T/C under setting [21] is 103 % of control and 96 % of control.

For the compound `c1ccc([Te][Te]c2ccccc2)cc1`, the T/C was 163 % of control under setting [1] and 105 % of control (dose: 200.0 mg/kg/injection, schedule: Q01DX005 (ip), vehicle: saline with Tween-80).

Regarding `O=C1Nc2ccccc2C(=O)C1(Cc1ccccc1)C(=O)c1ccccc1` (configuration not stated), the T/C was 99 % of control under setting [22], 105 % of control under setting [23] and 97 % of control under setting [24].

`Clc1ccc(CSCc2c(CSCc3ccc(Cl)cc3)c(CSCc3ccc(Cl)cc3)c(CSCc3ccc(Cl)cc3)c(CSCc3ccc(Cl)cc3)c2CSCc2ccc(Cl)cc2)cc1`: the T/C is 102 % of control under setting [7], 102 % of control under setting [8] and 99 % of control under setting [9].

For the compound `O=C(Cc1cccs1)c1ccc(O)cc1`, the T/C by setting is: under setting [3], 99 % of control; under setting [25], 102 % of control; under setting [26], 105 % of control.

As to `Cc1ccc(CSCC(NC(=O)OC(C)(C)C)C(=O)O)cc1` (configuration not stated), the T/C by setting is: under setting [3], 104 % of control; under setting [25], 97 % of control; under setting [26], 92 % of control.

`Cc1ccc(CNc2ccc([N+](=O)[O-])cc2)cc1`: the T/C was 100 % of control (dose: 50.0 mg/kg/injection, schedule: Q04DX003 (ip), vehicle: saline with Tween-80); 100 % of control (dose: 100.0 mg/kg/injection, schedule: Q04DX003 (ip), vehicle: saline with Tween-80); 95 % of control (dose: 200.0 mg/kg/injection, schedule: Q04DX003 (ip), vehicle: saline with Tween-80).

For `C=C1C(=O)OC2CC1C(OC(=O)/C=C/c1ccccc1)C/C(C)=C/CC/C(C)=C/CCC2(C)O` (configuration not stated), the T/C was 113 % of control (dose: 12.5 mg/kg/injection, schedule: Q01DX009 (ip), vehicle: Klucel (hydroxypropylcellulose) (HPC)); 113 % of control (dose: 25.0 mg/kg/injection, schedule: Q01DX009 (ip), vehicle: Klucel (hydroxypropylcellulose) (HPC)); 118 % of control (dose: 50.0 mg/kg/injection, schedule: Q01DX009 (ip), vehicle: Klucel (hydroxypropylcellulose) (HPC)); 110 % of control (dose: 100.0 mg/kg/injection, schedule: Q01DX009 (ip), vehicle: Klucel (hydroxypropylcellulose) (HPC)).

For `COC(=O)c1ccc(O)c(O)c1`, the T/C reads like this: under setting [8], 104 % of control; under setting [9], 100 % of control; (dose: 400.0 mg/kg/injection, schedule: Q01DX009 (ip), vehicle: saline with Tween-80) 100 % of control.

As for `COC(=O)CC1SC(=S)N(Cc2ccc(Cl)cc2)C1=O` (configuration not stated), the T/C under setting [22] is 94 % of control, the T/C under setting [23] was 90 % of control and the T/C under setting [24] was 90 % of control.
